Data on 4 compounds can be found in patent US20100273740A1 (priority 2004, published 2010).

Converted amounts (≈) assume the structure as drawn.

Data set [1] in a line: Cell viability of uninfected human foreskin fibroblast drug control wells. In kind it is cell-based. As to conditions: uninfected human foreskin fibroblast cells; read-out: Cytotoxic Conc. (IC50) Cell Growth.
A further data set concerns Vero cells. As to the kind of experiment: cells. The settings on record: Chlorocebus sabaeus, read-out: Inhibitory Conc. (IC50) Cell Growth. In kind it is cell-based.
In data set [2] the test system is Urbani strain of SARS CoV. As to the kind of experiment: organism not typed. As to conditions: Vero, read-out: Effective Conc. (EC50) Against SARS CoV. In kind it is cell-based.
For a further data set, the system named is SARS. As to conditions: cited from earlier work.
The conditions of data set [3]: cited from earlier work.
Another data set concerns SARS-CoV. The settings on record: cited from earlier work.

Regarding `CCCCCCCCCCOC(CNC(=O)CCCCCCCCC)COP(=O)([O-])OCC[N+](C)(C)C` (stereo not shown) [NHCOC9H19 OC9H18CH3 PC, 3-decanamido-2-decyloxypropyl-1-phosphocholine], the IC50 (as a rule, the midpoint of a concentration-inhibition curve) in data set [1] amounted to 75 µg/mL (≈ 136 µM).

Take `CCCCCCCCCCCC(=O)NCC(COP(=O)([O-])OCC[N+](C)(C)C)OCCCC` (stereo not shown) [NHCOC11H23 OC3H6CH3 PC, 3-dodecanamido-2-butyloxypropyl-1-phosphocholine]: the IC50 with Vero cells was found to be 40 µg/mL (≈ 80.9 µM). For the same compound, in data set [2], the EC50 (usually the concentration that produces a half-maximal response) is 3 µg/mL (≈ 6.06 µM).

Consider `NC(=O)c1ncn([C@@H]2O[C@H](CO)[C@@H](O)[C@H]2O)n1` [Ribavirin, 1-β-D-ribofuranosyl-1-1,2,4-triazole-3-carboxamide], for which the “Benefit in SARS patients” value in the data set on SARS was “has not been observed to be of benefit”. For the same compound, in data set [3], the “Patients with serum amino transferase levels reduced to normal” value is given as 40%. The “Effect on viral serum levels” value in data set [3] (patients) is given as “does not lower viral serum levels”.

As to interferon beta, the “Activity in vitro against SARS-CoV” value in the data set on SARS-CoV was “effective in vitro against SARS-CoV”.
